PubChem BioAssay (NCI)
Where “and” joins values, the source holds several entries; their conditions need not be identical. Identical values can stand only once.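 Assay format: 96-well plates, 48-hour exposure. The concentration for 50% growth inhibition is given as GI50. At the TGI there is no net growth.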

What was measured:
Experiment in all cases: inhibition of tumour cell growth, NCI panel, 48 h
HL-60(TB) leukemia = system: HL-60(TB) leukemia
SF-268 CNS = system: SF-268 CNS
OVCAR-4 ovarian = system: OVCAR-4 ovarian
MALME-3M melanoma = system: MALME-3M melanoma
SR leukemia = system: SR leukemia
HOP-62 NSCLC = system: HOP-62 NSCLC
NCI-H522 lung = system: NCI-H522 lung
CAKI-1 renal = system: CAKI-1 renal
K-562 leukemia = system: K-562 leukemia
NCI-H226 lung = system: NCI-H226 lung

| SMILES | GI50 (HL-60(TB) leukemia) | TGI (HL-60(TB) leukemia) | TGI (SF-268 CNS) | TGI (OVCAR-4 ovarian) | TGI (MALME-3M melanoma) | TGI (SR leukemia) | TGI (HOP-62 NSCLC) | TGI (NCI-H522 lung) | TGI (CAKI-1 renal) | TGI (K-562 leukemia) | TGI (NCI-H226 lung) | GI50 (SF-268 CNS) | GI50 (OVCAR-4 ovarian) | GI50 (MALME-3M melanoma) | GI50 (SR leukemia) | GI50 (HOP-62 NSCLC) | GI50 (NCI-H522 lung) | GI50 (CAKI-1 renal) | GI50 (K-562 leukemia) | GI50 (NCI-H226 lung) |
| --- | --- | --- | --- | --- | --- | --- | --- | --- | --- | --- | --- | --- | --- | --- | --- | --- | --- | --- | --- | --- |
| COc1ccc2c(=O)c(C)c(-c3ccccc3)oc2c1CN(C)C | > 100 µM and 34.6 µM | > 100 µM | > 100 µM | > 100 µM | > 100 µM | > 100 µM | > 100 µM | > 100 µM | > 100 µM | > 100 µM | > 100 µM |  |  |  |  |  |  |  |  |  |
| CCN(CC)CCCC(C)Nc1cnc(C(=O)Nc2ccc(Cl)c3cccnc23)cn1 (configuration not stated) | 1.77 µM | 3.54 µM | 15 µM | 6.99 µM | 3.3 µM | 4.12 µM | 3.61 µM | 4.34 µM | 4.1 µM | 3.71 µM | 20.7 µM | 3.23 µM | 2.42 µM | 1.82 µM | 1.18 µM | 1.77 µM | 2.07 µM | 1.78 µM | 1.05 µM | 4.73 µM |
| COc1ccc(C(=O)OCC2OC(n3cnc4c(=S)nc[nH]c43)C(OC(=O)c3ccc(OC)cc3)C2OC(=O)c2ccc(OC)cc2)cc1 (configuration not stated) |  | > 100 µM | > 100 µM | > 100 µM | > 100 µM | > 100 µM | > 100 µM | 54.5 µM | > 100 µM | > 100 µM | > 100 µM |  |  |  |  |  |  |  |  |  |
| O=C1CC(c2ccc(N3CCOCC3)cc2)(c2ccsc2)NC(=O)C1Sc1ccccc1Cl (configuration not stated) | > 100 µM | > 100 µM | > 100 µM | > 100 µM | > 100 µM | > 100 µM | > 100 µM | > 100 µM | > 100 µM | > 100 µM | > 100 µM | 20.2 µM | > 100 µM | > 100 µM | 4.4 µM | 60.3 µM | 13.8 µM | 28.4 µM | 4.69 µM | > 100 µM |
| Cc1cc(O)cc2oc(=O)c3c(O)cc(O)cc3c12 |  | 46.5 µM | 76.5 µM | > 100 µM | > 100 µM | > 100 µM | 50.9 µM | 30.4 µM | 90 µM | > 100 µM | 91.8 µM |  |  |  |  |  |  |  |  |  |
| CC(C)=CCC[C@H](C)[C@@H]1CC[C@]2(C)C3CC[C@]4(OC4(C)C)C(CCCO)[C@]3(C)CC[C@@]12C (some centres not stated) | 20.7 µM | 45.3 µM | 36 µM | 59 µM | 54.6 µM | 28.1 µM | 44.4 µM | > 100 µM | 44.4 µM | 73.3 µM | 57.4 µM | 17.8 µM | 25.3 µM | 27.3 µM | 11.2 µM | 20.8 µM | 32.4 µM | 21.7 µM | 25.3 µM | 10 µM |
| CC(C)(C)NC(C1=CC(C)(C)c2ccccc2C1=O)c1ccccc1 (configuration not stated) | 0.868 µM | 2.9 µM | 2.74 µM | 5.93 µM | 2.97 µM | 1.74 µM | 4.84 µM | 2.41 µM | 13.4 µM | 3.86 µM | 3.17 µM | 1.38 µM | 1.51 µM | 1.34 µM | 0.293 µM | 2.16 µM | 1.1 µM | 3.26 µM | 1.67 µM | 1.42 µM |
| COC(=O)NC1C(C)OC(OC2C/C=C(/C)C3C=CC4C(OC5CC(OC6CC(O)C(OC7CC(O)C(OC)C(C)O7)C(C)O6)C(O)C(C)O5)C(C)CC(C)C4C3(C)/C(O)=C3\C(=O)OC4(CC(C)C(CO)=CC4/C=C\2C)C3=O)CC1(C)[N+](=O)[O-] (configuration not stated) | 7.94 µM | 21.3 µM and 24.2 µM | 50 µM and 55.1 µM | 11.8 µM | 15.8 µM and 17.8 µM | 50 µM and > 100 µM | 18.4 µM and 46.3 µM | 11.7 µM and 22.7 µM | 47.3 µM and 41.1 µM | 14.7 µM and 71.8 µM | 22.3 µM and 31.6 µM |  |  | 8.88 µM | 23.2 µM | 9.62 µM |  |  | 3.64 µM | 10 µM |
| CC[C@H](C)[C@H]1NC(=O)[C@@H](N[C@](C)(O)[C@@H](N)CC(C)C)[C@@H](C)OC(=O)[C@H](Cc2ccc(OC)cc2)N(C)C(=O)[C@@H]2CCCN2C(=O)[C@H](CC(C)C)NC(=O)[C@@H](C)C(=O)[C@H](C(C)C)OC(=O)C[C@@H]1O | 0.0218 µM | 0.281 µM | 0.348 µM | 0.365 µM | 0.133 µM | 0.0422 µM | 0.601 µM | 0.143 µM | 2.59 µM | 1.8 µM | 0.501 µM | 0.0132 µM | 0.0189 µM | 0.0117 µM | 0.00603 µM | 0.0146 µM | 0.0114 µM | 0.241 µM | 0.0156 µM | 0.0175 µM |
| Cn1cncc1[C@@](N)(c1ccc(Cl)cc1)c1ccc2c(c1)c(-c1cccc(Cl)c1)cc(=O)n2C | 1.29 µM | 4.62 µM | 14.7 µM | 14.7 µM | 12.1 µM | 4.32 µM | 18.4 µM | 5.05 µM | 14.7 µM | 6.16 µM | 21.5 µM | 3.01 µM | 2.14 µM | 0.901 µM | 0.165 µM | 5.51 µM | 0.655 µM | 3.08 µM | 0.669 µM | 5.98 µM |
| C=C1C(=O)O[C@@H]2C[C@@]3(C)CCC[C@H](C)C3=C[C@H]12 |  | 5.52 µM | 26.7 µM | 17.6 µM | 15.8 µM | 4.78 µM | 24.7 µM | 11.1 µM | 17.3 µM | 31.2 µM | 29.5 µM |  |  |  |  |  |  |  |  |  |
| Oc1ccc2cc(Br)ccc2c1-c1c(O)ccc2cc(Br)ccc12 | 2.87 µM | 8.6 µM | 13.2 µM | 14.6 µM | 6.05 µM | 7.43 µM | 11.1 µM | 4.53 µM | 8.77 µM | 11.1 µM | 8.9 µM | 3.27 µM | 4.89 µM | 2.19 µM | 2.52 µM | 2.62 µM | 1.98 µM | 2.27 µM | 2.88 µM | 2.66 µM |
| Cc1c(Cl)ccc2c1NC(=O)C2(O)C(C(=O)c1ccccc1)c1ccccc1 (configuration not stated) |  | 39.5 µM | > 100 µM | 28.7 µM | > 100 µM | 60.2 µM | > 100 µM | 93.7 µM | > 100 µM | > 100 µM | > 100 µM |  |  |  |  |  |  |  |  |  |
| Nc1nc(N)c(N=O)c(Nc2ccc(O)cc2)n1 |  | > 71.3 µM | > 83.8 µM | > 100 µM | > 100 µM | 97.7 µM | > 57.2 µM | > 56.6 µM | > 76.3 µM | > 92.1 µM | 96 µM |  |  |  |  |  |  |  |  |  |
| O=C(Nc1ccccc1O)c1cccc(NC2=C(Cl)C(=O)N(Cc3ccccc3)C2=O)c1 | 1.5 µM | 8.5 µM | 27.5 µM | 45.4 µM | 9.19 µM | 2.57 µM | 20.6 µM | 28.5 µM | 12.7 µM | 9.06 µM | 11.5 µM | 11.3 µM | 10.3 µM | 0.488 µM | 0.583 µM | 7.98 µM | 9.02 µM | 5.12 µM | 2.15 µM | 3.7 µM |
| COc1cc(/C=C2/C(=O)N(C(=O)OC(C)C)C(Cc3cc(OC)c(OC)c(C)c3OC)C(=O)N2Cc2ccccc2)c(OC)c(C)c1OC (configuration not stated) |  | > 100 µM | > 100 µM | > 100 µM | > 100 µM | 51.1 µM | > 100 µM | 32 µM | > 100 µM | > 100 µM | 30 µM |  |  |  |  |  |  |  |  |  |
| CCC(C)(C)C(=O)O[C@H]1C[C@@H](C)C=C2C=C[C@H](C)[C@H](CC[C@@H]3C[C@@H](O)CC(=O)O3)[C@H]21 | 6.02 µM | 20.8 µM and > 30 µM | 15.4 µM | 20.5 µM and > 30 µM | 30.5 µM | 13.1 µM and > 30 µM | 20.3 µM and > 30 µM | 5.26 µM | 3.73 µM and 8.56 µM | 22.8 µM and > 30 µM | 9.27 µM | 0.715 µM | 6.1 µM | 13.9 µM | 1.72 µM | 7.37 µM | 0.826 µM | 0.941 µM | 5.53 µM | 2.32 µM |
